Measurements as given in PMC8092647, “Assessment of carbapenems in a mouse model of Mycobacterium tuberculosis infection” (PLoS ONE, 2021).
“Also recorded” adds a separate entry of the source. Where two headings read alike, the source gives them in different places.

How the values were obtained:
[1] = tested on: M. tuberculosis H37Rv; test: Minimum inhibitory concentration (MIC) by micro broth dilution, read by visual inspection of the bacterial pellet after 14 d; format: cell-based; settings: Mycobacterium tuberculosis, 336 h
[2] = Mouse plasma pharmacokinetics after a single 25 mg/kg sc dose (LC-MS, non-compartmental model); settings: for %T>MIC: female BALB/c mice, single 25 mg/kg sc, percentage of time above the MIC over 3 h; for AUC(0-t) / Cmax / half-life / concentration at 3 h: female, BALB/c, mouse, plasma, sc, 25 mg/kg
[3] = tested on: M. tuberculosis; design: method as in Chambers et al. [7] (imipenem), Kumar et al. [6] (biapenem); settings: acute M. tuberculosis infection model in mice; ref Chambers et al. [7] (imipenem), Kumar et al. [6] (biapenem); cited from earlier work
[4] = female, BALB/c, mouse, in vivo, sc, 25 mg/kg
[5] = in vivo; settings: female, BALB/c, mouse, sc, 25 mg/kg
[6] = tested on: M. tuberculosis H37Rv; test: Sub-acute mouse model of M. tuberculosis infection, lung CFU burden; format: in vivo, BALB/c mice; settings: for onset of activity in infected mice (reduction of lung burden at one week vs no-treatment group): 400 mg/kg bid sc + 75 mg/kg clavulanate, little or no reduction at one week; for efficacy in comparison (lung M. tuberculosis burden): 1 and 3 weeks
[7] = M. tuberculosis H37Rv, 7H9 broth without Tween-80, 14 d, drug alone without clavulanate, read-out: MIC
[8] = carbapenems 400 mg/kg bid sc + 75 mg/kg clavulanate, rifampin 10 mg/kg once daily orally

Structure (SMILES) | MIC [1, 7] | %T>MIC [2] | AUC(0-t) [2] | Cmax [2] | half-life [2] | MIC ([1]; H37RV) | onset of activity in infected mice (reduction of lung burden at one week vs no-treatment group) [6] | also measured
C[C@@H](O)[C@H]1C(=O)N2C(C(=O)[O-])=C(SC3Cn4cnc[n+]4C3)[C@H](C)[C@H]12 (stereo partly drawn) [Biapenem, reference compound] | 2.5 to 5 mg/L | 33–100% | 63.3 µg·h/mL | 55.6 µg/mL | 17.3 min |  |  | onset of activity in infected mice [3]: delayed activity
C[C@@H](O)[C@H]1C(=O)N2C(C(=O)O)=C(SCC(=O)OC(C)(C)C)[C@H](C)[C@H]12 [JSF-2196] | 2 to 4 mg/L |  |  |  |  |  |  | %T>MIC [4]: 17–33%; AUC(0-t) [5]: 9.06 µg·h/mL; Cmax [5]: 20.5 µg/mL; half-life [5]: 13.8 min
CSC1=C(C(=O)[O-])N2C(=O)[C@H]([C@@H](C)O)[C@H]2[C@H]1C.[Na+] [JSF-2204, Sodium (4R,5S,6S)-6-((R)-1-hydroxyethyl)-4-methyl-3-(methylthio)-7-oxo-1-azabicyclo[3.2.0]hept-2-ene-2-carboxylate] |  | 33–100% | 23 µg·h/mL | 63 µg/mL |  | 0.25 to 0.5 mg/L | delayed activity | efficacy in comparison (lung M. tuberculosis burden) [6, 8]: efficacy equivalent to that of meropenem; also recorded: inferior to rifampin; also recorded: statistically indistinguishable efficacy; also recorded: statistically equivalent performance to meropenem
C[C@@H](O)[C@H]1C(=O)N2C(C(=O)O)=C(SCC(F)(F)F)[C@H](C)[C@H]12 [JSF-2415] | 4 to 8 mg/L |  |  |  |  |  |  | %T>MIC [4]: 17–33%; AUC(0-t) [5]: 12.5 µg·h/mL; Cmax [5]: 34.8 µg/mL; half-life [5]: 14.5 min
C[C@@H](O)[C@H]1C(=O)N2C(C(=O)[O-])=C(SCCc3ccccc3)[C@H](C)[C@H]12.[Na+] [JSF-2417, Sodium (4R,5S,6S)-6-((R)-1-hydroxyethyl)-4-methyl-7-oxo-3-(phenethylthio)-1-azabicyclo[3.2.0]hept-2-ene-2-carboxylate] |  | 8.3–33% | 5.74 µg·h/mL | 5.19 µg/mL | 38.8 min | 2 to 4 mg/L | delayed activity | efficacy in comparison (lung M. tuberculosis burden) [6, 8]: inferior; concentration at 3 h [2]: 0.262 µg/mL
C[C@@H](O)[C@H]1C(=O)N2C(C(=O)[O-])=C(SCCC(=O)N3CCOCC3)[C@H](C)[C@H]12.[Na+] [JSF-2700, Sodium (4R,5S,6S)-6-((R)-1-hydroxyethyl)-4-methyl-3-((3-morpholino-3-oxopropyl)thio)-7-oxo-1-azabicyclo[3.2.0]hept-2-ene-2-carboxylate] |  | 8.3–33% | 5.93 µg·h/mL | 17.4 µg/mL | 15.5 min | 2 to 4 mg/L |  | concentration at 3 h [2]: 0.006 µg/mL
C[C@@H](O)[C@H]1C(=O)N2C(C(=O)O)=C(S[C@@H]3CN[C@H](C(=O)N(C)C)C3)[C@H](C)[C@H]12 [Meropenem, reference compound] | 4 to 8 mg/L | <8.3% | 0.613 µg·h/mL | 1.34 µg/mL | 27.8 min |  | delayed activity | 
C[C@@H](O)[C@H]1C(=O)N2C(C(=O)O)=C(SCCN=CN)C[C@H]12 [imipenem] |  |  |  |  |  |  |  | onset of activity in infected mice [3]: delayed activity
CO[C@H]1/C=C/O[C@@]2(C)Oc3c(C)c(O)c4c(O)c(c(/C=N/N5CCN(C)CC5)c(O)c4c3C2=O)NC(=O)/C(C)=C\C=C\[C@H](C)[C@H](O)[C@@H](C)[C@@H](O)[C@@H](C)[C@H](OC(C)=O)[C@@H]1C [rifampin, reference compound] |  |  |  |  |  |  |  | effect on lung bacterial burden after one week of dosing ([6]; rifampin 10 mg/kg once daily orally, 1 week): bacteriostatic effect; effect on lung bacterial burden after 3 weeks of dosing ([6]; rifampin 10 mg/kg once daily orally, carbapenems 400 mg/kg bid sc + 75 mg/kg clavulanate, 3 weeks): bacteriostatic effect
